Experimental findings from patent publication US20230203043A1, “NOVEL IMIDAZOPYRAZINE DERIVATIVES” (Hoffmann-La Roche Inc., priority 2020, published 2023) are described below.

Molecules are shown by their SMILES. Structures can show the parent of a compound that is named as a salt. Where two headings read alike, the source gives them in different places.

The assay deals with Acinetobacter baumannii ATCC17961. As to the kind of experiment: Antimicrobial susceptibility testing: 90% growth inhibitory concentration (IC90) determination in Iso-Sensitest broth, OD600 growth. Type of assay: cell-based. The procedure, abridged: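 Each strain, at about 5×10^(5) CFU/ml, was incubated with twofold dilutions of compound at 35±2° C for 16 h, and IC90 was calculated from kinetic optical density measured at 600 nm during logarithmic growth.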

Setting [1] is: Acinetobacter baumannii, ATCC17961, 16 h, read-out: A. baumannii ATCC 17961 IC90 (uM), strain ATCC 17961, OD600 growth over 16 h.
The mark [2] stands for this setting: Acinetobacter baumannii, ATCC17961, 16 h, strain ATCC 17961, OD600 growth over 16 h, read-out: A. baumannii ATCC 17961 IC90.
Setting [3] is: strain ATCC 17961, OD600 growth over 16 h, read-out: A. baumannii ATCC 17961 IC90.

`Cc1cc(Nc2nccn3c(-c4c[nH]nc4C(F)(F)F)cnc23)ccc1C(=O)N1CCN(C(=O)C2(O)CCNCC2)CC1` [Example 460, formic acid; [4-(4-hydroxypiperidine-4-carbonyl)piperazin-1-yl]-[2-methyl-4-[[3-[3-(trifluoromethyl)-1H-pyrazol-4-yl]imidazo[1,2-a]pyrazin-8-yl]amino]phenyl]methanone]: under setting [1], the IC90 was 0.896 µM.

In the case of `CCc1cc(Nc2nccn3c(-c4cn(CC(F)F)nc4C(F)F)cnc23)ccc1C(=O)N1CCN(C(=O)CN)CC1` [Example 766, 2-amino-1-(4-(4-((3-(1-(2,2-difluoroethyl)-3-(difluoromethyl)-1H-pyrazol-4-yl)imidazo[1,2-a]pyrazin-8-yl)amino)-2-ethylbenzoyl)piperazin-1-yl)ethan-1-one], under setting [2], the concentration for an effect of 90% (IC90) was 0.903 µM. With `Cc1cc(Nc2nccn3c(-c4cn(CC#N)nc4C(F)(F)F)cnc23)ccc1C(=O)NCCCNC(=O)[C@@H]1C[C@@H](O)CN1` [Example 367, (2S,4R)-N-[3-[[4-[[3-[1-(cyanomethyl)-3-(trifluoromethyl)pyrazol-4-yl]imidazo[1,2-a]pyrazin-8-yl]amino]-2-methylbenzoyl]amino]propyl]-4-hydroxypyrrolidine-2-carboxamide formate], the IC90 under setting [1] was found to be 0.468 µM. As to `CNC(=O)c1ccc(Nc2nccn3c(-c4cn(CC5CCN(Cc6ccccc6)C5)nc4C(F)(F)F)cnc23)cc1Cl` (stereo not drawn) [Example 593, 4-((3-(1-((1-benzylpyrrolidin-3-yl)methyl)-3-(trifluoromethyl)-1H-pyrazol-4-yl)imidazo [1,2-a]pyrazin-8-yl)amino)-2-chloro-N-methylbenzamide formate], under setting [1], the IC90 came to 0.234 µM. As to `N#CCn1cc(-c2cnc3c(Nc4ccc(C(=O)NCC(=O)N5CCNCC5)c(Cl)c4)nccn23)c(C(F)(F)F)n1` [Example 501, 2-chloro-4-[[3-[1-(cyanomethyl)-3-(trifluoromethyl)pyrazol-4-yl]imidazo[1,2-a]pyrazin-8-yl]amino]-N-(2-oxo-2-piperazin-1-yl-ethyl)benzamide formate], the IC90 under setting [2] was determined as 0.224 µM. As to `CCc1cc(Nc2nccn3c(-c4cn(CC#N)nc4C(F)(F)F)cnc23)ccc1C(=O)NCCCNC(=O)[C@H](C)N` [Example 794, (S)-N-(3-(2-aminopropanamido)propyl)-4-((3-(1-(cyanomethyl)-3-(trifluoromethyl)-1H-pyrazol-4-yl)imidazo[1,2-a]pyrazin-8-yl)amino)-2-ethylbenzamide formate], the IC90 under setting [1] amounted to 2.2 µM. For the compound `Cc1cc(Nc2nccn3c(-c4cn(CC#N)nc4C(F)(F)F)cnc23)cc(F)c1C(=O)N[C@H](C)CNC(=O)[C@H]1C[C@@H](N)C1` [Example 709, N-((R)-1-((1s,3S)-3-aminocyclobutane-1-carboxamido)propan-2-yl)-4-((3-(1-(cyanomethyl)-3-(trifluoromethyl)-1H-pyrazol-4-yl)imidazo[1,2-a]pyrazin-8-yl)amino)-2-fluoro-6-methylbenzamide formate], under setting [3], the concentration for an effect of 90% (IC90) turned out to be 0.404 µM. As to `CCc1cc(Nc2nccn3c(-c4cn(CC#N)nc4C(F)(F)F)cnc23)ccc1C(=O)N[C@H](C)C(=O)N[C@@H]1CCNC1` [Example 803, 4-[[3-[1-(cyanomethyl)-3-(trifluoromethyl)pyrazol-4-yl]imidazo[1,2-a]pyrazin-8-yl]amino]-2-ethyl-N-[(1R)-1-methyl-2-oxo-2-[[(3R)-pyrrolidin-3-yl]amino]ethyl]benzamide formate], the concentration for an effect of 90% (IC90) under setting [1] is 3.77 µM. Regarding `Cc1cc(Nc2nccn3c(-c4c[nH]nc4C(F)(F)F)cnc23)ccc1C(=O)N1CCN(C(=O)[C@H]2CCNC[C@H]2O)CC1` [Example 463, formic acid; [4-[(3S,4S)-3-hydroxypiperidine-4-carbonyl]piperazin-1-yl]-[2-methyl-4-[[3-[3-(trifluoromethyl)-1H-pyrazol-4-yl]imidazo[1,2-a]pyrazin-8-yl]amino]phenyl]methanone], the concentration for an effect of 90% (IC90) under setting [1] turned out to be 0.998 µM. For the compound `CCc1cc(Nc2nccn3c(-c4cn(CC(O)CO)nc4C(F)(F)F)cnc23)ccc1C(=O)NCCOCCN` (stereo not drawn) [Example 314, N-[2-(2-aminoethoxy)ethyl]-4-[[3-[1-(2,3-dihydroxypropyl)-3-(trifluoromethyl)pyrazol-4-yl]imidazo[1,2-a]pyrazin-8-yl]amino]-2-ethylbenzamide formate], the concentration for an effect of 90% (IC90) under setting [1] is 1.43 µM. With `Cc1cc(Nc2nccn3c(-c4c[nH]nc4C(F)(F)F)cnc23)cc(F)c1C(=O)NCCOCCN` [Example 80, N-[2-(2-aminoethoxy)ethyl]-2-fluoro-6-methyl-4-[[3-[3-(trifluoromethyl)-1H-pyrazol-4-yl]imidazo[1,2-a]pyrazin-8-yl]amino]benzamide], under setting [2], the IC90 amounted to 0.737 µM. As for `O=C(c1ccc(Nc2nccn3c(-c4c[nH]nc4C(F)(F)F)cnc23)cc1Cl)N1CCN(C(=O)C2CCNCC2)CC1` [Example 401, [2-chloro-4-[[3-[3-(trifluoromethyl)-1H-pyrazol-4-yl]imidazo[1,2-a]pyrazin-8-yl]amino]phenyl]-[4-(piperidine-4-carbonyl)piperazin-1-yl]methanone formate], the IC90 under setting [1] turned out to be 0.273 µM.

Consider `CCc1cc(Nc2nccn3c(-c4cn(CC#N)nc4C(F)(F)F)cnc23)ccc1C(=O)NCC(=O)NCC1CNC1` [Example 521, N-[2-(azetidin-3-ylmethylamino)-2-oxo-ethyl]-4-[[3-[1-(cyanomethyl)-3-(trifluoromethyl)pyrazol-4-yl]imidazo[1,2-a]pyrazin-8-yl]amino]-2-ethyl-benzamide formate], for which the IC90 under setting [2] stood at 0.38 µM.

For the compound `CCCn1cc(-c2cnc3c(Nc4ccc(C(=O)NCCOCCN)c(CC)c4)nccn23)c(C(F)(F)F)n1` [Example 25, N-[2-(2-aminoethoxy)ethyl]-2-ethyl-4-[[3-[1-propyl-3-(trifluoromethyl)pyrazol-4-yl]imidazo[1,2-a]pyrazin-8-yl]amino]benzamide hydrochloride], the IC90 under setting [2] is 0.141 µM.

In the case of `Cc1cc(Nc2nccn3c(-c4cn(CC(F)F)nc4C(F)(F)F)cnc23)cc(F)c1C(=O)N[C@H](C)CNC(=O)[C@H]1C[C@@H](N)C1` [Example 669, N-((R)-1-((1s,3S)-3-aminocyclobutane-1-carboxamido)propan-2-yl)-4-((3-(1-(2,2-difluoroethyl)-3-(trifluoromethyl)-1H-pyrazol-4-yl)imidazo[1,2-a]pyrazin-8-yl)amino)-2-fluoro-6-methylbenzamide], under setting [2], the IC90 was determined as 0.3 µM. For the compound `C=CCn1cc(-c2cnc3c(Nc4ccc(C(=O)NCCOCC(C)N)c(CC)c4)nccn23)c(C(F)(F)F)n1` (stereo in doubt) [Example 146, N-[2-[(2S)-2-aminopropoxy]ethyl]-2-ethyl-4-[[3-[1-prop-2-enyl-3-(trifluoromethyl)pyrazol-4-yl]imidazo[1,2-a]pyrazin-8-yl]amino]benzamide], the IC90 under setting [3] was 0.028 µM.

As to `CCc1cc(Nc2nccn3c(-c4c[nH]nc4C(F)(F)F)cnc23)ccc1C(=O)NCCOCCCN` [Example 613, N-(2-(3-aminopropoxy)ethyl)-2-ethyl-4-((3-(3-(trifluoromethyl)-1H-pyrazol-4-yl)imidazo [1,2-a]pyrazin-8-yl)amino)benzamide formate], the IC90 under setting [1] stood at 0.105 µM. Take `Cc1cc(Nc2nccn3c(-c4cn(CCF)nc4C(F)(F)F)cnc23)ccc1C(=O)NCCOCCN` [Example 253, N-[2-(2-aminoethoxy)ethyl]-4-[[3-[1-(2-fluoroethyl)-3-(trifluoromethyl)pyrazol-4-yl]imidazo[1,2-a]pyrazin-8-yl]amino]-2-methylbenzamide]: the IC90 under setting [2] was determined as 0.198 µM. With `NC1CC(NC(=O)c2ccc(Nc3nccn4c(-c5c[nH]nc5C(F)(F)F)cnc34)cc2Cl)C1` (stereo not drawn) [Example 403, N-(3-aminocyclobutyl)-2-chloro-4-[[3-[3-(trifluoromethyl)-1H-pyrazol-4-yl]imidazo[1,2-a]pyrazin-8-yl]amino]benzamide], the IC90 under setting [3] came to 0.398 µM.

With `N#CCn1cc(-c2cnc3c(Nc4ccc(C(=O)N5CC6(CNC6)C5)c(Cl)c4)nccn23)c(C(F)(F)F)n1` [Example 102, 2-[4-[8-[3-chloro-4-(2,6-diazaspiro[3.3]heptane-2-carbonyl)anilino]imidazo[1,2-a]pyrazin-3-yl]-3-(trifluoromethyl)pyrazol-1-yl]acetonitrile], the IC90 under setting [2] was found to be 0.18 µM. Still for that read-out and setting: then `N#CCn1cc(-c2cnc3c(Nc4ccc(C(=O)N5CCN(C(=O)[C@@H]6CC[C@H](N)C6)CC5)c(Cl)c4)nccn23)c(C(F)(F)F)n1` [Example 194, 2-[4-[8-[4-[4-[(1R,3S)-3-aminocyclopentanecarbonyl]piperazine-1-carbonyl]-3-chloroanilino]imidazo[1,2-a]pyrazin-3-yl]-3-(trifluoromethyl)pyrazol-1-yl]acetonitrile formate], with 0.274 µM. Take `C[C@@H](NC(=O)c1ccc(Nc2nccn3c(-c4c[nH]nc4C(F)(F)F)cnc23)cc1Cl)C(=O)N[C@@H]1CCNC1` [Example 93, 2-chloro-N-[(2R)-1-oxo-1-[[(3R)-pyrrolidin-3-yl]amino]propan-2-yl]-4-[[3-[3-(trifluoromethyl)-1H-pyrazol-4-yl]imidazo[1,2-a]pyrazin-8-yl]amino]benzamide formate]: the IC90 under setting [1] is 1.02 µM. `N[C@H]1CC[C@H](C(=O)N2CCN(C(=O)c3ccc(Nc4nccn5c(-c6cn(CC(F)F)nc6C(F)(F)F)cnc45)cc3Cl)CC2)C1` [Example 583, (4-((1S,3S)-3-aminocyclopentane-1-carbonyl)piperazin-1-yl) (2-chloro-4-((3-(1-(2,2-difluoroethyl)-3-(trifluoromethyl)-1H-pyrazol-4-yl)imidazo[1,2-a]pyrazin-8-yl)amino)phenyl) methanone formate]: the 90% effect concentration (IC90) under setting [1] turned out to be 0.347 µM.

For `N#CCn1cc(-c2cnc3c(Nc4ccc(C(=O)N5CCN(C(=O)[C@H]6CCNC6)CC5)c(Cl)c4)nccn23)c(C(F)(F)F)n1` [Example 190, 2-[4-[8-[3-chloro-4-[4-[(3S)-pyrrolidine-3-carbonyl]piperazine-1-carbonyl]anilino]imidazo[1,2-a]pyrazin-3-yl]-3-(trifluoromethyl)pyrazol-1-yl]acetonitrile], the IC90 under setting [2] was 0.245 µM.
